Data on eight molecules can be found in patent publication US20140303163A1, “USE OF KINASE INHIBITORS IN PREVENTING AND TREATING INFLAMMATORY DISORDER” (priority 2011, published 2014).

For one data set, the target named is T1, TSSK1 (Homo sapiens, UniProt Q9BXA7).
T1 sequence (Q9BXA7 1-367): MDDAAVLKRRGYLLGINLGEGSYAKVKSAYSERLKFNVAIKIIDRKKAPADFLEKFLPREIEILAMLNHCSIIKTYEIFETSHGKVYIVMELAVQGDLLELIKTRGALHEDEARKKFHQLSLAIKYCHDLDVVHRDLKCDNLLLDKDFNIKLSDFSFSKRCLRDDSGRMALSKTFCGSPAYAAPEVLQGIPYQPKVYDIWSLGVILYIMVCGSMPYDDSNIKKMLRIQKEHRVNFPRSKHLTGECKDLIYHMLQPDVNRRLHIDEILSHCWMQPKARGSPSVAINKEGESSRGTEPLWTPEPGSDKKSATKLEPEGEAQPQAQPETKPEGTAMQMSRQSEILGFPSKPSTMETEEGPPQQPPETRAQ
As to the kind of experiment: Kinase assay TSSK1. Conditions: read-out: Target biochemical activity IC50, TSSK1.

The next data set has as its system HT29. As to the kind of experiment: Cellular effect in mammalian cells, HT29. Type of data set: cell-based. As to conditions: Homo sapiens, HT-29.
In another data set the test system is MCF-7 cells. As to the kind of experiment: Cell apoptosis assay (TUNEL, PARP Western blot). Format: cell-based. As to conditions: 48 hours, TUNEL and PARP Western blot. The protocol:
(§1) MCF-7 cells were treated with compound 18 (F200) and Roscovitine for 48 hours. Then the cells were analyzed by TUNEL assay and Western blot to detect apoptosis.
For TUNEL assay, cells were fixed and blocking in 6-well plate. DNA strand breaks were labeled by terminal deoxynucleotidyl transferase (TdT), which catalyzed polymerization of labeled nucleotides to free 3′-OH DNA ends in template-independent manner Fluorescein could be detected by anti-fluorescein antibody, conjugated with horse-radish-peroxidase (POD). After DAB reaction, stained cells were analyzed and counted under light microscope.
(§2) For Western blot, cells were harvested and lysed by lysis buffer. Western blot were performed with anti-PARP or anti-Pol[…] II antibody. During apoptosis, PARP is cleaved from a 113KD intact form into smaller 89KD and 24KD fragments.

Another data set has as its system THP-1. As to the kind of experiment: Cellular effect in mammalian cells, THP-1. Type of data set: cell-based. Conditions: Homo sapiens.
The nature of data set [1]: Preliminary toxicology study in mice (acute toxicity). Format: in vivo. Conditions: mouse, in vivo, po, p.o. (gavage), two weeks. The protocol:
(§3) Preliminary toxicology study in mice: Mice were divided into four groups (n=10 in each), 500 mg/kg, 1,000 mg/kg or 2,000 mg/kg were administered respectively to three groups by gavage. Negative control is 0.5% CMC-Na. After two weeks, mice were sacrificed and tissue section of visceral organs were analyzed by Hematoxylin-Eosin staining

Another data set has as its system mice. The data set is described as above. Conditions: p.o. Format: in vivo. The protocol: as §3
Data set [2] is described as follows: PK profile: rat IV/PO study. Format: in vivo. Conditions: oral administration.
A further data set has as its system rabbit neutrophils. As to the kind of experiment: Induction of neutrophil apoptosis (Annexin-V and PI staining). Type of data set: cell-based. The protocol:
• 1. Acquire 5-10 ml blood from adult rabbit • 2. Isolate neutrophils using RED BLOOD CELL LYSING BUFFER (SIGMA Cat No. R7757) and rabbit isolation kit (TBDsciences, Cat No. LZS11133) • 3. Treat neutrophils with reference compounds or SG45 for 15 h • 4. Apoptosis assay (Annexin-V and PI staining)
Harvest neutrophils by centrifugation at 1,000 rpm, 4° C. for 7 min Remove culture medium after centrifugation. Wash the cell pellet with pre-cooled PBS 200 l once. The re-suspend the cells with pre-cooled PBS 100 l. Incubate the cells with 2 l dye PI (BD Biosciences. Cat. No. 556463) and 2 l anti-Annexin V-PE (BD Biosciences. Cat. No. 556421) at room temperature under the darkness for 30 minutes. Remove the antibodies by centrifugation at 1,000 rpm, 4° C. for 2 min Resuspend the cells in 200 l pre-cooled PBS Finally, load the cell suspension to the FACS machine to acquire the staining results: […]

In another data set the test system is L02. As to the kind of experiment: Cellular effect in mammalian cells, L02. As to conditions: Homo sapiens. Format: cell-based.
In a further data set the test system is lung carcinoma (H460). Briefly: Tumor growth inhibition, H460 xenograft. Type of data set: in vivo, SCID-bg mice. Conditions: 150 mg/kg, oral administration. The protocol: Animal: SCID-bg mice Tumor type: lung carcinoma (H460) Treatment: Single PO dose for 21 days (starting at day 7 following tumor inoculation) Endpoint: tumor volume and mean luciferase activity by Xenogen (Caliper) machine: SCID-bg mice were implanted with NCI-H460 cells at 5×10^6 cells/mouse on Day 0. Compound 18 treatment began on Day 7. […] In model group, the vehicle was used instead of compound 18. Tumor volume and mean luciferase activity by Xenogen technology were measured once per there days.

In data set [3] the test system is CDK9's activity on Pol II phosphorylation. Briefly: Western blot of Pol II phosphorylation. Type of data set: cell-based. As to conditions: MCF-7 cells, 48 hours. The protocol:
as §1, §2

The next data set deals with HepG2. Briefly: Cellular effect in mammalian cells, HepG2. Type of data set: cell-based. Conditions: Homo sapiens.
The subject of the next data set is HCT116. Briefly: Cellular effect in mammalian cells, HCT116. Type of data set: cell-based. As to conditions: Homo sapiens, HCT-116.
The target of another data set is CDK2 (Homo sapiens, UniProt P24941). As to the kind of experiment: Kinase assay CDK2. Conditions: read-out: Target biochemical activity IC50, CDK2.
Another data set has as its system H460. Briefly: Cellular effect in mammalian cells, H460. Conditions: Homo sapiens, NCI-H460. Format: cell-based.
The test system of a further data set is MCF-7. As to the kind of experiment: Cellular effect in mammalian cells, MCF-7. As to conditions: Homo sapiens, MCF7. Type of data set: cell-based.
The target in a further data set is SRC (Homo sapiens, UniProt P12931). As to the kind of experiment: Kinase assay SRC. As to conditions: read-out: Target biochemical activity IC50, SRC.
The subject of another data set is Jurkat. Briefly: Cellular effect in mammalian cells, Jurkat. Format: cell-based. Conditions: Homo sapiens.
In another data set the target is CDK7 (Homo sapiens, UniProt P50613). As to the kind of experiment: Kinase assay CDK7. Conditions: read-out: Target biochemical activity IC50, CDK7.
The test system of a further data set is K562. Briefly: Cellular effect in mammalian cells, K562. Type of data set: cell-based. As to conditions: Homo sapiens.
The subject of the next data set is MRC-5. Briefly: Cellular effect in mammalian cells, MRC-5. Type of data set: cell-based. Conditions: Homo sapiens, MRC5.
A further data set concerns HeLa. Briefly: Cellular effect in mammalian cells, HeLa. Format: cell-based. As to conditions: Homo sapiens.
The next data set concerns the target Aurora B (Homo sapiens, UniProt Q96GD4). As to the kind of experiment: Kinase assay Aurora B. Conditions: read-out: Target biochemical activity IC50, Aurora B.

“Also recorded” adds a separate entry of the source.

CDK7, sequence (P50613 whole entry, species assumed): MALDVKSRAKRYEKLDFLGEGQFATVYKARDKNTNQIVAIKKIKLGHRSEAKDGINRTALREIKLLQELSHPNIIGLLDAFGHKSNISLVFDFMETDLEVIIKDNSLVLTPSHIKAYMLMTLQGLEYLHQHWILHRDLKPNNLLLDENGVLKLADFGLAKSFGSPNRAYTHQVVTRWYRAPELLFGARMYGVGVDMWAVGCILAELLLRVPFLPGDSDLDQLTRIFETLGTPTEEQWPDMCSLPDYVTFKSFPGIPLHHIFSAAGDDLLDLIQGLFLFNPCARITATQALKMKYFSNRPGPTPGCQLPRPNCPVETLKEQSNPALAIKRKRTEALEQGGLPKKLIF
CDK7, sequence (P51946 whole entry partner, species assumed): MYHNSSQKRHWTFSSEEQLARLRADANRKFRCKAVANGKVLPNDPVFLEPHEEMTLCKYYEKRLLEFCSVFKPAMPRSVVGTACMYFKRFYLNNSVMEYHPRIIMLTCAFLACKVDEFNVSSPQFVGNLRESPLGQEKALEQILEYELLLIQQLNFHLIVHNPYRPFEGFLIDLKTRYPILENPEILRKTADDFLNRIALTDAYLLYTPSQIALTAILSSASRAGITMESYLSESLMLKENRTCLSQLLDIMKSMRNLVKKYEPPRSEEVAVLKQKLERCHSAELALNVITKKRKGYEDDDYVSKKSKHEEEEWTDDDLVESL
CDK7, sequence (P51948 whole entry partner, species assumed): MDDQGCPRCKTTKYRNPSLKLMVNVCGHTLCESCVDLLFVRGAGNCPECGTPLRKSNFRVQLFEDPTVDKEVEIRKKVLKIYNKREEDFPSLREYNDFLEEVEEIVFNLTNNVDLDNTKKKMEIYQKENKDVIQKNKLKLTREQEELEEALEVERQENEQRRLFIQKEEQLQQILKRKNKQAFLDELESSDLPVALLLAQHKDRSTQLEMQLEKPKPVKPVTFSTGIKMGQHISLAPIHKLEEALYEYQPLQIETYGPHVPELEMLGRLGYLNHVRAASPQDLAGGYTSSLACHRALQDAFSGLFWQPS
SRC, sequence (P12931 whole entry, species assumed): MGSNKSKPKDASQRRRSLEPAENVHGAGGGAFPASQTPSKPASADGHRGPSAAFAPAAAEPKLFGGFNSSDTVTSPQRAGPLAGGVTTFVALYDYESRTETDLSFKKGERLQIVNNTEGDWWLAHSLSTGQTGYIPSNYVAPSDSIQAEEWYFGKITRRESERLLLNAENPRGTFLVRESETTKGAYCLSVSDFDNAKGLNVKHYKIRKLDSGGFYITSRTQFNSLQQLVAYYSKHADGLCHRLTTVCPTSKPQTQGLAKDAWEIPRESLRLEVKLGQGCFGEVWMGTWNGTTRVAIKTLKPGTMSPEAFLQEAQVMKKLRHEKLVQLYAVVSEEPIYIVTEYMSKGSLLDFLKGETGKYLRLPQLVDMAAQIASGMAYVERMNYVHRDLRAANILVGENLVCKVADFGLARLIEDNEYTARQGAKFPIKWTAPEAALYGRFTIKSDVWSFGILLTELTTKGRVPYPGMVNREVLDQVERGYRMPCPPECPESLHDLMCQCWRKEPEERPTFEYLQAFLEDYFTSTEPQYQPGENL
Aurora B, sequence (Q96GD4 whole entry): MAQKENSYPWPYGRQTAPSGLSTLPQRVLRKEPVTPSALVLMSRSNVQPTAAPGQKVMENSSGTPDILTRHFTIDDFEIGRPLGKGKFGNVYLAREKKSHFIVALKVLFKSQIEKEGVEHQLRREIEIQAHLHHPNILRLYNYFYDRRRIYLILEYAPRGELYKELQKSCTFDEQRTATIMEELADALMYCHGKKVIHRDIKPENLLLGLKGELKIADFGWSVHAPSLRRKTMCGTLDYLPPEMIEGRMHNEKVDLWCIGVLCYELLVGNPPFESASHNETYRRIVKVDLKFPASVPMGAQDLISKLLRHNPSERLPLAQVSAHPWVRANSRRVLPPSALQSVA

In the case of `CCn1cc(-c2ccnc(Nc3cccc(S(N)(=O)=O)c3)n2)c2cccnc21` [Compound 18, 3-(4-(1-Ethyl-1H-pyrrolo[2,3-b]pyridin-3-yl)pyrimidin-2-ylamino)benzenesulfonamide], the IC50 on TSSK1 was above 10 µM; in the data set on HT29 it was 0.59 µM; with THP-1 it was 5.3 µM; with L02, 4.3 µM. In the data set with MCF-7 cells, the “Induction of cell apoptosis” value was “induced apoptosis of cells; also recorded: induced cell apoptosis with dose-dependent manner”. For the same molecule, the 50% lethal dose (LD50) at 2 weeks in data set [1] is above 2000 mg/kg. The molecule also yielded an MTD at 2 weeks in data set [1] above 500 mg/kg. Moreover, the Tolerability in animals result in the data set with mice is listed as “excellent tolerability in animals”. Further, the “Oral availability (in words)” value in data set [2] was “good oral availability”. For the same molecule, the “Induction of neutrophil apoptosis compared with Roscovitine” value in the data set on rabbit neutrophils (15 h, FIG. 5) is recorded as “stronger capability in inducing neutrophil apoptosis than Roscovitine”. In addition, the “Apoptotic morphological changes of neutrophils” value in the data set with rabbit neutrophils (increasing dose (0.5, 2, 10 μM), FIG. 4) was “typical apoptotic morphological changes”. Further, the “Tumor growth inhibition (in words)” value with lung carcinoma (H460) is “able to inhibit tumor growth”. Moreover, the “Inhibition of CDK9's activity on Pol II phosphorylation” value in data set [3] is recorded as “inhibited CDK9's activity on Pol II phosphorylation”.
Regarding `CCn1cc(-c2ccnc(Nc3cccc(O)c3)n2)c2ccnc(Cl)c21` [SG48, 3-(4-(7-Chloro-1-ethyl-1H-pyrrolo[2,3-c]pyridin-3-yl)pyrimidin-2-ylamino)phenol], the IC50 at TSSK1 was 0.14 µM; in the data set with HT29, 8.31 µM; in the data set with HepG2, 6.1 µM; in the data set with HCT116, 4.67 µM; at CDK2, 0.004 µM; in the data set with H460 it was 4.66 µM. In addition, the IC50 with MCF-7 was 9.4 µM; at SRC, above 10 µM; with THP-1, above 10 µM; in the data set with Jurkat it was 1.92 µM; at CDK7 it was 3.28 µM; in the data set on K562, 4.75 µM. The figures for the 50% inhibitory concentration (IC50) in the data set with L02, in the data set with MRC-5 and with HeLa were 8.1 µM, above 10 µM and 3.31 µM, respectively.
With `CCn1cc(-c2ccnc(Nc3ccc(O)cc3)n2)c2ccnc(Cl)c21` [SG49, 4-(4-(7-Chloro-1-ethyl-1H-pyrrolo[2,3-c]pyridin-3-yl)pyrimidin-2-ylamino)phenol], the IC50 with HT29 is 8.59 µM; with HepG2, 5.55 µM; in the data set on HCT116, 4.28 µM; in the data set on H460 it was 2.95 µM; in the data set on MCF-7 it was above 10 µM; in the data set on THP-1, 3.68 µM. The concentration for half-maximal inhibition (IC50) with Jurkat is 0.61 µM; with K562, 3.52 µM; in the data set on L02, 7.34 µM; in the data set on MRC-5 it was 5.82 µM; in the data set on HeLa it was 2.69 µM.
Consider `CCn1cc(-c2ccnc(Nc3cccc(S(N)(=O)=O)c3)n2)c2ccnc(Cl)c21` [SG50, 3-(4-(7-Chloro-1-ethyl-1H-pyrrolo[2,3-c]pyridin-3-yl)pyrimidin-2-ylamino)benzenesulfonamide], for which the IC50 at TSSK1 was 0.52 µM; with HT29, 1.16 µM; in the data set with HCT116, 0.28 µM; on CDK2, 0.004 µM; in the data set on MCF-7, 0.45 µM; at SRC, above 10 µM. For the same molecule, the IC50 in the data set with Jurkat was 0.4 µM; on CDK7 it was above 10 µM; in the data set with K562, 0.61 µM; in the data set on MRC-5, 3.36 µM; with HeLa, 0.23 µM; on Aurora B it was above 10 µM.
`CCCn1cc(-c2ccnc(Nc3cccc(S(N)(=O)=O)c3)n2)c2ccncc21` [SG51, 3-(4-(1-Propyl-1H-pyrrolo[2,3-c]pyridin-3-yl)pyrimidin-2-ylamino)benzenesulfonamide] yielded an IC50 in the data set on Jurkat of 0.005 µM.
Consider `CCCn1cc(-c2ccnc(Nc3ccc(C)c(S(=O)(=O)N4CCOCC4)c3)n2)c2ccncc21` [SG52, N-(4-Methyl-3-(morpholinosulfonyl)phenyl)-4-(1-propyl-1H-pyrrolo[2,3-c]pyridin-3-yl)pyrimidin-2-amine], for which the IC50 in the data set with L02 turned out to be 1.4 µM.
In the case of `CCCn1cc(-c2ccnc(Nc3cccc(S(N)(=O)=O)c3)n2)c2nc(Cl)cc(C)c21` [SG53, 3-(4-(5-Chloro-7-methyl-1-propyl-1H-pyrrolo[3,2-b]pyridin-3-yl)pyrimidin-2-ylamino)benzenesulfonamide], the 50% inhibitory concentration (IC50) was determined as 0.25 µM in the data set with HT29 and 3.56 µM in the data set on HCT116.
As to `CCCn1cc(-c2ccnc(Nc3ccc(S(N)(=O)=O)cc3)n2)c2nc(Cl)cc(C)c21` [SG54, 4-(4-(5-Chloro-7-methyl-1-propyl-1H-pyrrolo[3,2-b]pyridin-3-yl)pyrimidin-2-ylamino)benzenesulfonamide], 8.37 µM corresponded to half-maximal inhibition in the data set with L02 (IC50).
